The text below walks through data of PubChem BioAssay AID463206 (Broad Institute, 2010).

A word on the AC50: it is the concentration giving half of the maximal activity seen.

Calls of active or inactive are those of the source.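 How the source made its calls: active means caspase luminescence falls with dose and the half-maximal concentration AC50 from the fitted curve is at or below a set limit; inconclusive means flat fit at 30 to 70% signal loss, or invalid fit; inactive means AC50 above the limit, or signal rises instead.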

The assay concerns INS-1E cytokine-induced caspase-3/7, Caspase-Glo luminescence, 48 h. Description: inhibitors of cytokine-induced caspase-3/7 activity, dose response, orthogonal assay for beta-cell apoptosis protection project, INS-1E rat cells, luminescence (AID 463206).
In the case of `CC(C)CC(=O)NC(c1cccs1)c1ccc2cccnc2c1O` (centres undefined), the AC50 was > 26 µM (inactive).
Regarding `Oc1c(Cl)cc(Cl)cc1/C=N/Nc1ncc(Br)cn1`, the AC50 is > 26 µM (inactive).
Under `Cn1c(=O)[nH]c(=O)c2c1nc([N+](=O)[O-])n2Cc1ccccc1` stands > 26 µM (inactive); under `COc1ccc(CN(C)c2ccc(S(=O)(=O)N3CCN(C)CC3)cc2[N+](=O)[O-])cc1OC`, > 26 µM (inactive); under `CCCCCCC(=O)N1C/C=C\C(c2ccc(OC)cc2)N(Cc2ccc(F)cc2)C(=O)[C@H]1Cc1ccccc1` (some centres undefined), > 26 µM (inactive).
Under `O=C(Nc1ccc(Br)c(C(F)(F)F)c1)c1ccc(C(F)(F)F)cc1` stands > 26 µM (inactive); under `COc1ccc2c(c1)C(=O)[C@H](O)[C@@H](c1ccc(OC)c(Br)c1)O2`, > 26 µM (inactive); under `O=C(NNC(=O)c1ccccc1O)c1ccc(Cl)c(S(=O)(=O)N2CCc3ccccc32)c1`, 27.2 µM.
Take `O=C(Nc1ccc(Cl)cc1)/C(=C/c1cccc(O)c1)c1nc2ccccc2s1`: the AC50 was > 26 µM (inactive).
Under `CCOC(=O)/C(=C\c1ccccc1)C(=O)c1cc(C(C)=O)c(Nc2ccccc2)s1` stands > 26 µM (inactive); under `Cn1cccc1C1C=C(c2ccc(C(C)(C)C)cc2)Nc2ncnn21` (centres undefined), > 26 µM (inactive).
Consider `CC(=O)Oc1ccc(N(C(C)=O)S(=O)(=O)c2cccs2)c2ccccc12`, for which the AC50 was > 26 µM (inactive).
As to `COC(=O)[C@H](CC(C)C)N(Cc1ccccc1)S(=O)(=O)N(Cc1ccccc1)[C@@H](CC(C)C)C(=O)OC`, the AC50 is > 26 µM (inactive).
Turning to `[O-]c1ccccc1-[n+]1c(-c2ccccc2)cc(-c2ccccc2)cc1-c1ccccc1`, the AC50 is > 26 µM (inactive).
On to `COc1cc2nc(N3CCN(c4cc(C)ccc4C)CC3)nc(N)c2cc1OC`, for which the AC50 is > 26 µM (inactive).
Then `CCN(CC)S(=O)(=O)c1ccc(N/N=C/c2cc(OC)ccc2O)nc1`, with > 26 µM (inactive).
Consider `Cc1ccc(C(=O)N/C(=C\c2ccc(-c3ccccc3[N+](=O)[O-])o2)C(=O)NCCCN2CCOCC2)cc1`, for which the AC50 was > 26 µM (inactive).
`C/C(=N/Nc1nc(-c2ccccc2)cc(-c2ccc(F)cc2)n1)c1cccc(N)c1`: the AC50 was > 26 µM (inactive).
For the compound `COc1ccc(-c2sc3ccccc3c2-c2ccc(OCCN3CCCCC3)cc2)cc1`, the AC50 is > 26 µM (inactive).
Then `Cc1ccc(O)c(CNc2cccc3cccnc23)c1`, with > 12 µM (inactive); and `CCn1c(-c2ccc(N(C)C)cc2)nc2ccccc21`, with > 26 µM (inactive); and `C/C(=N\NC(=O)C(C)n1nc(C)c([N+](=O)[O-])c1C)c1ccccc1O` (centres undefined), with > 26 µM (inactive).
For `Cc1cc(C)nc(N/N=C2/CCCC/C2=C\c2ccccc2)n1`, the AC50 was > 26 µM (inactive).
Consider `CCCCS(=O)(=O)/C=C\C=C/S(=O)(=O)CCCC`, for which the AC50 is > 26 µM (inactive).
Under `Clc1ccc(C(c2ccc(Cl)cc2)n2cc[n+](CC(OCc3ccc(Cl)cc3Cl)c3ccc(Cl)cc3Cl)c2)cc1` (centres undefined) stands > 26 µM (inactive); under `CC(=O)c1cccc(N=c2scc(-c3ccc(S(=O)(=O)N4CCOCC4)cc3)n2CCO)c1`, > 26 µM (inactive).
Take `COc1ccc(-n2c(=S)[nH]c3cc(C(=O)Nc4ccccc4OC)ccc3c2=O)cc1`: the AC50 was > 26 µM (inactive).
In the case of `CCCCOc1cc(NCc2ccccc2)c2ncn(C(C)C)c2c1`, the AC50 is > 26 µM (inactive).
In the case of `CCN(CC)c1ccc(/C=N/NC(=O)c2nnn(-c3nonc3N)c2C(C)C)c(O)c1`, the AC50 is > 26 µM (inactive).
For `CCOc1cc(/C=N/NC(=O)c2cc(-c3cccc(OC)c3)nc3ccccc23)ccc1O`, the AC50 is > 26 µM (inactive).
For the compound `CC(C)[C@H]1C(=O)O[C@H](C(C)C)C(=O)N(C)[C@@H](C(C)C)C(=O)O[C@H](C(C)C)C(=O)N(C)[C@@H](C(C)C)C(=O)O[C@H](C(C)C)C(=O)N1C`, the AC50 was > 26 µM (inactive).
Under `O=C(Nc1nc(NC(=O)c2ccco2)n(-c2ccccc2)n1)c1ccccc1` stands > 26 µM (inactive); under `COc1ccc(CC(=O)Nc2cccc(S(=O)(=O)N3CCCCCC3)c2)cc1OC`, > 26 µM (inactive); under `COC(=O)c1nc(-c2ccc3c(n2)C(=O)C(N)=C(OC)C3=O)c(N)c(-c2ccc(OC)c(OC)c2O)c1C`, > 26 µM (inactive).
Under `Cc1ccc(N=Nc2ccc(O)c3ncccc23)cc1` stands > 26 µM (inactive).
As to `C=CCN(CC=C)Cc1c[nH]c2ccccc12`, the AC50 was 26.3 µM.
For the compound `O=[N+]([O-])c1ccc(NC(=S)NCCc2ccc(Cl)cc2)cc1`, the AC50 was > 26 µM (inactive).
Take `CC(O)CNc1nc2sc3c(c2c(=O)n1Cc1ccco1)CCCCC3` (centres undefined): the AC50 was > 12 µM (inactive).
As to `CC1CCC/C=C/C2CC(O)CC2C(O)/C=C/C(=O)O1` (centres undefined), the AC50 is > 26 µM (inactive).
Under `COc1ccc(CCNc2ncnc3c2oc2ccccc23)cc1OC` stands > 26 µM (inactive).
Regarding `CCOc1ccc(-n2c(-c3ccc(Br)cc3)c[n+]3c2CCCCC3)cc1`, the AC50 is > 26 µM (inactive).
Consider `C/C(=N\NC(=O)c1ccc(C)cc1)c1c(C)[nH]n(-c2ccccc2)c1=O`, for which the AC50 is > 26 µM (inactive).
Turning to `Nc1nonc1-n1nnc(C(=O)N/N=C/c2cc(Br)ccc2O)c1CNc1ccccc1`, the AC50 is > 26 µM (inactive).
As for `CCOc1ccc(OCC)c(S(=O)(=O)NCCOC23CC4CC(CC(C4)C2)C3)c1`, the AC50 was 15.9 µM.
In the case of `O=C(O)CCCC(=O)Nc1ccc(C(=O)NCc2cccnc2)cc1`, the AC50 was > 26 µM (inactive).
Take `CCCCCCCCCCCCn1ccc(=N)cc1`: the AC50 was > 26 µM (inactive).
As to `COc1ccc(-c2cc(-c3nc4ccccn4c3NCc3ccccc3)ccc2OC)cc1`, the AC50 was > 26 µM (inactive).
Take `CCOc1cc(S(=O)(=O)NCc2ccncc2)ccc1Cl`: the AC50 was > 26 µM (inactive).
As to `CCCCCCCCCCOC(=O)C[N+](C)(C)C/C=C(/C)Cl`, the AC50 is > 26 µM (inactive).
Consider `Cc1ccccc1C(=O)N1CCN(c2ccc(NC(=O)c3cccnc3)cc2)CC1`, for which the AC50 was > 26 µM (inactive).
With `C#CCN(C(=O)c1cc(COc2cccc(C(F)(F)F)c2)on1)C1CCCCC1`, the AC50 was > 26 µM (inactive).
Turning to `COc1ccc(S(=O)(=O)N(C(=O)c2ccco2)c2cc3sc(=O)oc3c3ccccc23)cc1`, the AC50 was > 26 µM (inactive).
In the case of `CC(C)(C)c1cc(C(=O)N/N=C/c2ccc([N+](=O)[O-])s2)n[nH]1`, the AC50 was > 26 µM (inactive).
On to `Cc1nn(S(=O)(=O)c2ccc(Cl)cc2)c(C)c1Sc1ccc([N+](=O)[O-])cc1`, for which the AC50 was > 26 µM (inactive).
Take `CN(c1ccccc1)c1ccc(/C=C/[N+](=O)[O-])cc1`: the AC50 was > 26 µM (inactive).
For `Oc1c(CN2CCN(c3ccc(F)cc3)CC2)cc(Cl)c2cccnc12`, the AC50 was > 26 µM (inactive).
Regarding `CC1=NN(c2nc(-c3ccc(C)cc3)cs2)C(=O)C1N=Nc1ccc(C(N)=O)cc1` (centres undefined), the AC50 was > 26 µM (inactive).
Take `O=C(Nc1cccnc1)c1cccs1`: the AC50 was > 26 µM (inactive).
Then `c1ccc(CCNc2nc(-c3ccccn3)nc3ccccc23)cc1`, with > 26 µM (inactive).
